US20080267909A1, “PHAGOCYTE ENHANCEMENT THERAPY FOR ATHEROSCLEROSIS” (THE TRUSTEES OF COLUMBIA UNIVERSITY IN THE CITY OF NEW YORK, priority 2005, published 2008)

Tests used:
[1] = tested on: FC-induced apoptotic macrophages; conditions: phagocytes pre-treated with 100 μM for 15 minutes; compared to untreated phagocytes; FIG. 2
Description: Briefly, mouse peritoneal macrophages were labeled with the fluorophore calcein-AM (green) and then FC-loaded to induced apoptosis. Some of the macrophages were not FC-loaded, thus serving as a non-apoptotic control. The macrophages were added to a monolayer of octadecylrhodamine-labeled (red) macrophage phagocytes for 30 minutes at 37° C. The monolayers were then thoroughly rinsed with phosphate buffered saline (PBS). […] The percentage of rhodamine-labeled phagocytes with green inclusion was determined and quantified. Inclusion of green indicated the uptake of apoptotic cells into the phagocytes.

[2] = tested on: ingesting phagocytes (IPs) and non-IPs; assay: FC-induced apoptosis (annexin V) in IPs and non-IPs during 20 hour post-ingestion FC-loading; assay type: cell-based, mouse; conditions: 10 μM inhibitor; for apoptosis in IPs: 20 hours in FC-loading medium, FIG. 10A
Description: FIG. 10A is a bar graph depicting the results of experiments in which the protocol described in FIG. 9C was used and the percent apoptosis was determined in non-IPs (cross-hatched bars) and IPs (black bars) that were incubated for 20 hours in FC-loading medium either in the absence or presence of 10 μM of the IKK inhibitor PS1145, 10 μM of the PI-3 kinase/Akt inhibitor […], or both compounds.
(§1) FC-AMs were removed from the culture dish and cultured for 30 minutes with a monolayer of fresh macrophages (“phagocytes”) at an approximate ratio of 1:5 (FC-AMs:phagocytes). In certain experiments, the FC-AMs were labeled with Alexa Fluor 488 annexin V or Calcium Green™-AM for 20 minutes prior to addition to the phagocytes in order to mark those phagocytes that had ingested the FC-AMs (“ingesting phagocytes,” or “IPs”). The non-ingested apoptotic cells were then removed by thorough rinsing as described in Li et al. (2006, J. Biol. Chem. 281:6707-6717), and the phagocytes were incubated in fresh medium for the indicated times. In some experiments, the phagocytes were incubated during the post-ingestion incubation in medium containing acetyl-LDL and 58035 to maintain FC levels in the (ingesting phagocytes) IPs, inhibitors of Akt or NFκB, or various combinations of these reagents. To assay apoptosis in the phagocytes, the cells were stained with Alexa Fluor 594 annexin V and viewed by fluorescence microscopy. For quantification, 4-6 representative fields of cells at 40× magnification were counted to determine the number of apoptotic phagocytes and total phagocytes for each condition.
Because NFκB is known to signal survival responses in cells, the functional significance of NFκB signaling in the survival response of IPs against FC-induced apoptosis was investigated. […] The NFkB and Akt survival pathways might represent independent, complementary survival pathways or they may signal through a common final mediator. […]

[3] = tested on: ingesting phagocytes (IPs) and non-IPs; assay: UV-induced apoptosis (annexin V) in IPs and non-IPs; assay type: cell-based, mouse; conditions: 10 μM inhibitor, 8 hour incubation after UV irradiation, FIG. 12
[4] = tested on: cholesterol trafficking to ACAT in the ER; assay: Whole-cell cholesterol esterification assay in phagocytes after ingestion of FC-AMs; assay type: cell-based, mouse; conditions: 1 μM during the post-ingestion period; FIG. 7
Description: FIG. 7 is a bar graph depicting the results of experiments in which macrophages were incubated for 18 hours in medium alone (i.e., no exposure to FC-AMs) or in the same medium for the indicated time points after ingestion of FC-AMs. All of the incubations contained [^14C]oleate, and some of the phagocytes were incubated with 1 μM U18666A during the post-ingestion period to block cholesterol trafficking to the endoplasmic reticulum (ER). To make sure that the phagocytes would not be exposed to residual ACAT inhibitor in the FC-AMs, the FC-AMs for this experiment were generated by incubating macrophages from Acat1−/− mice with AcLDL without ACAT inhibitor. After the indicated time points, the macrophages were assayed for cholesteryl [^14C]oleate formation as an indicator of cholesterol trafficking to ACAT in the ER.
After a 30 minute incubation of phagocytes with FC-AMs that were made using acetyl-LDL and macrophages from Acat1^−/− mice (i.e., no ACAT inhibitor), non-ingested apoptotic cells were removed, and the phagocytes were incubated in fresh medium containing [^14C]oleate for specific times. […] Cholesterol esterification activity was then determined in lipid extracts of the cells by measuring the cellular content of cholesteryl [^14C]oleate by thin-layer chromatography (Tabas et al., 1987, J. Clin. Invest. 79:418-426). […]

[5] = tested on: apoptotic J774 cells; assay: Phagocytic uptake of apoptotic J774 cells by peritoneal macrophages, ROCK inhibitor (Example 4); assay type: cell-based; conditions: 10 μM, one hour pre-treatment, 45 minutes with apoptotic cells; vs untreated; FIG. 4
Description: As discussed in Example 6, statins can inhibit RhoA activation. RhoA activation inhibits phagocytic clearance of apoptotic cells and so inhibitors of RhoA or the downstream RhoA effector, Rho kinase (ROCK) can enhance or at least contribute to limit or decrease Rho-mediated inhibition of phagocytic clearance. […] In these experiments, peritoneal macrophages (phagocytes) were treated for one hour in the presence or absence of 10 μM Y-27632. Calcein-AM-labeled (green) apoptotic J774 cells (UV-irradiated) were then added to the phagocytes at a ratio of 1:1, in the absence or presence of Y-27632. After 45 minutes, non-internalized cells were removed by rinsing, and the percentage of phagocytes that had internalized labeled apoptotic macrophages was quantified by fluorescence microscopy. Results are depicted in FIG. 4 as the as the mean ±SEM; n=3 fields of cells, each containing approximately 150 cells.

[6] = tested on: UV-induced apoptotic J774 macrophages; assay: Phagocytosis of UV-induced apoptotic J774 macrophages by J744 murine macrophages (Example 4); assay type: cell-based; conditions: 10 μM, one hour pre-treatment, 45 minutes; vs untreated; FIG. 5
Description: In a similar experiment, J744 murine macrophages (phagocytes) were pretreated in the presence of absence of the ROCK inhibitor fasudil (10 μM) for one hour. The phagocytes were then incubated for 45 minutes, with or without fasudil, with fluorescently labeled UV-induced apoptotic J774 macrophages (“UV-Ams”). The percentage of phagocytes that had engulfed at least one UV-AM was quantified using fluorescent microscopy. […] Such compounds are useful for treating cardiovascular disease.

[7] = tested on: ingesting phagocytes (IPs); assay: Apoptosis in phagocytes that had ingested FC-AMs, incubated with SRA ligand; assay type: cell-based, mouse
Description: as §1
FC-induced apoptosis in macrophages requires UPR activation in combination with engagement of the type A scavenger receptor (SRA), both of which occur with acetyl-LDL-induced FC loading. […]

[8] = tested on: UV-irradiated apoptotic J774 cells; assay: Efferocytosis of UV-irradiated apoptotic J774 cells by cytokine pre-treated primary efferocytes; assay type: cell-based; conditions: pre-treated about 24 hours, challenged 30 minutes; FIG. 17
Description: FIG. 17. Primary efferocytes were pre-treated with the indicated cytokine for about 24 hours and then challenged for 30 minutes with UV-irradiated apoptotic J774 cells and the percent efferocytosis was determined.
Thus, drugs that mimic this effect can promote the uptake of apoptotic macrophages in advanced atherosclerotic lesions (see in allergic, cellular and humoral responses to parasitic and extracellular pathogens (see Nat Rev Immunol. 2003 January;3(1):23-35).

Molecule: CCN(CC)CC.Nc1ncnc2c1ncn2C1OC2COP(O)(=S)OC2C1O (single isomer, unassigned) [PKA inhibitor, adenosine 3′,5′-cyclic monophosphorothioate, Rp-isomer, triethylammonium salt]
- percentage of rhodamine-labeled phagocytes with green inclusion (uptake of FC-induced apoptotic macrophages) [1]: internalized more FC-induced apoptotic macrophages than untreated phagocytes

Molecule: O=c1cc(N2CCOCC2)oc2c(-c3ccccc3)cccc12 [LY294002]
- apoptosis in IPs [2]: 32.0±5.7%

Molecule: O=C(Nc1cc(Cl)cc2c1[nH]c1cnccc12)c1cccnc1 [PS1145]
- FC-induced apoptosis in IPs (in words) ([2]; 20 hours FC-loading, vs no inhibitor): very similar effect
- apoptosis in IPs [2]: 32.0±3.4%
- UV-induced apoptosis in non-IPs / compared to non-IPs [3]: no effect
- UV-induced apoptosis in IPs ([3]; vs no-inhibitor control): only a small increase

Molecule: CCN(CC)CCO[C@H]1CC[C@@]2(C)C(=CC[C@@H]3[C@@H]2CC[C@]2(C)C(=O)CC[C@@H]32)C1 [U18666A]
- FC-AM-induced increase in cholesterol esterification (cholesteryl [14C]oleate formation) [4]: completely blocked

Molecule: C[C@@H](N)[C@H]1CC[C@H](C(=O)Nc2ccncc2)CC1 [Y-27632, trans-4-[(1R)-1-aminoethyl]-N-pyridin-4-ylcyclohexanecarboxamide]
- percentage of phagocytes ingesting apoptotic macrophages [5]: increase

Molecule: O=S(=O)(c1cccc2cnccc12)N1CCCNCC1 [fasudil]
- percentage phagocytosis (phagocytes that had engulfed at least one UV-AM) [6]: increased

Molecule: fucoidan
- induction of apoptosis in the IPs [7]: did not induce apoptosis

B1: interleukin-4: cytokine that promotes alternative activation of macrophages (protein, UniProt P05112 25-153, looked up)
Interleukin-4: HKCDITLQEIIKTLNSLTEQKTLCTELTVTDIFAASKNTTEKETFCRAATVLRQFYSHHEKDTRCLGATAQQFHRHKQLIRFLKRLDRNLWGLAGLNSCPVKEANQSTLENFLERLKTIMREKYSKCSS
- percent efferocytosis (ability of phagocytes to engulf apoptotic macrophages) [8]: promotes the ability of these phagocytes to engulf apoptotic macrophages
